Results as given in publication PMC5150697 (ACS Medicinal Chemistry Letters, 2016).

What was measured:
[1] = target: human serum albumin (HSA) (Homo sapiens, UniProt P02768); assay: Equilibrium dialysis with HSA; format: in vitro ADME; conditions: 1 µM, 4% HSA, pH 7.4, 37 °C, 4 h, n = 3
human α1 AGP = assay: Equilibrium dialysis with human α1 AGP; format: in vitro ADME; conditions: 1 µM, 0.1% AGP, pH 7.4, 37 °C, 4 h, n = 3
[2] = tested on: ABCA1 induction in human whole blood; assay: Human whole blood assay; format: cell-based; conditions: for improvement in hWBA potency compared to 5: ratio of hWBA EC50 values vs 5
[3] = after multiple days of dosing, limited therapeutic window; cited from earlier work

Chain of human serum albumin (HSA) (P02768 25-609): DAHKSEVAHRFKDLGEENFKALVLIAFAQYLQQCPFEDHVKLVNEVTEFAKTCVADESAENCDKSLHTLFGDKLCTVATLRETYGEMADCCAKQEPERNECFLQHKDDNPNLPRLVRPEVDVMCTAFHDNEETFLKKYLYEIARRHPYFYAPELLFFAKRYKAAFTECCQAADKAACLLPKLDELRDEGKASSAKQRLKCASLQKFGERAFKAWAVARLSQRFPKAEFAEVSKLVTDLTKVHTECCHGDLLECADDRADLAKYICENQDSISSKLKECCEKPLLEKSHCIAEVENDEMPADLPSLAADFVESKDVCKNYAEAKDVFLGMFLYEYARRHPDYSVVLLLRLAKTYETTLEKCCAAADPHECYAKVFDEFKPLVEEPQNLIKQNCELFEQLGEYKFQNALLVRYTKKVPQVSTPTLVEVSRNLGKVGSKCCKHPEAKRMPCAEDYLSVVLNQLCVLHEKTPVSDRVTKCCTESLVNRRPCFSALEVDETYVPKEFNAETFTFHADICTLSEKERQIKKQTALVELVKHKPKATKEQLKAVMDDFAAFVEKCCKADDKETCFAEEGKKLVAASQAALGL

| human α1 AGP (% bound) (human α1 AGP) [%] | Compound | improvement in hWBA potency compared to 5 [2] [fold] | further results |
| --- | --- | --- | --- |
| 99.9 ± 0.0 | CC(C)(O)c1cn(-c2ccc(-c3cccc(S(C)(=O)=O)c3)cc2)c(C(C)(C)c2ccccc2Cl)n1 [Example 5] |  | HSA (% bound) [1]: 97.2 ± 0.3% |
| 99.6 ± 0.2 | CC(C)(O)c1cn(-c2ccc(-c3cccc(S(C)(=O)=O)c3)cc2)c(C(C)(C)c2c(Cl)cccc2Cl)n1 [Example 6] | 3 |  |
|  | CC(C)(O)c1cn(-c2ccc(-c3cc(F)c(CO)c(S(C)(=O)=O)c3)cc2)c(C(C)(C)c2ccccc2Cl)n1 [Example 10] | 20 |  |
|  | CC(C)(O)c1cn(-c2ccc(-c3cc(F)c(CO)c(S(C)(=O)=O)c3)cc2)c(C(C)(C)c2c(Cl)cccc2Cl)n1 [Example 12] |  | improvement in hWBA potency ([2]; 2,6-dichloro analogue vs 10): 3–4 fold |
|  | CC(C)(O)c1cn(-c2ccc(-c3cc(F)c(CO)c(S(C)(=O)=O)c3)cc2F)c(C(C)(C)c2c(Cl)cccc2Cl)n1 [Example 15] |  | TGs and LDL-C in human trials [3]: elevated |
